Results on 20 compounds are retold here after US8367644B2, “Methods and compounds useful to induce apoptosis in cancer cells” (The Burnham Institute, priority 2003, dated 2013).

Where two headings read alike, the source gives them in different places.

The subject of series [1] is ZR75-1 cell line (low expressor of Bcl-2/Bcl-xL). Put plainly: XTT dye reduction cell viability assay, ZR75-1. Particulars: ZR75-1, XTT; for IC50: read-out: IC50, cell viability, three days. (Tetrazolium dyes change colour on reduction, which living cells bring about.)
Description: (§1) To evaluate the cytotoxic activity of our compounds on human tumors cells, we tested their biological activities using XTT dye reduction assays using two breast cancer cell lines: MCF7 (high expressor of Bcl-2/Bcl-xL) and ZR75-1 (low expressor of Bcl-2/Bcl-xL).
(§2) The effects of the compounds studied in this paper on viability of tumor cells in culture were monitored by using XTT (Weislow et al., J. Natl. Cancer Inst., 81:577 (1989)) assays with MCF7 and ZR75-1 cell lines. MCF7 cells were grown in DMEM containing 10% fetal bovine serum, penicillin/streptomycin, supplemented with 10^−10 M insulin, 1 mM sodium pyruvate and glutamine. ZR75-1 cells were grown in RPMI containing 10% fetal bovine serum, penicillin/streptomycin, supplemented with HEPES buffer, 1 mM sodium pyruvate and glutamine. Cells were regularly tested for mycoplasma contamination. Cells were seeded triplicates at an initial cell density of 1,000 cells per well. Blank wells received no cells. […] Relative numbers of viable cells was determined by XTT assay. Briefly, in a 96-well plate, we added 50 μl of a mixture of 1 mg/ml of XTT (Weislow et al., J. Natl. Cancer Inst., 81:577 (1989)) (2,3-bis(2-methoxy-4-nitro-5-sulfophenyl)-5-[(phenylamino)carbonyl]-2H-tetrazolium hydroxide) (Polysciences, Washington, Pa.) containing 0.025 mM PMS (phenazine methosulfate) to each well. The 96-well plates were re-incubated for an additional 4 hours to allow for XTT formazan production. Then, the contents of each plate were mixed and optical densities were determined at a wavelength of 450 nm (OD450). Net OD450 was determined after subtracting OD450 of blank wells. Low-passage HeLa cells (between passage number 10 and 20) were transfected with pcDNA3-Bcl-xL or control pcDNA3 plasmids using Lipofectamine Plus reagent (Invitrogen) and selected in medium containing 800 μg/ml of G418. Immunoblot analysis of Bcl-xL was accomplished as described (Krajanski 1996-Cancer Res) HeLa-transfectants were treated with various doses of Gossypol, Purpurogallin, and its derivatives (0, 1, 3, 10 and 100 μM).
Series [2] deals with MCF7 cell line (high expressor of Bcl-2/Bcl-xL). Put plainly: XTT dye reduction cell viability assay, MCF7.
Description: as §1
The effects of the compounds studied in this paper on viability of tumor cells in culture were monitored by using XTT (Weislow et al., J. Natl. Cancer Inst., 81:577 (1989)) assays with MCF7 and ZR75-1 cell lines. MCF7 cells were grown in DMEM containing 10% fetal bovine serum, penicillin/streptomycin, supplemented with 10^−10 M insulin, 1 mM sodium pyruvate and glutamine. ZR75-1 cells were grown in RPMI containing 10% fetal bovine serum, penicillin/streptomycin, supplemented with HEPES buffer, 1 mM sodium pyruvate and glutamine. Cells were regularly tested for mycoplasma contamination. Cells were seeded triplicates at an initial cell density of 1,000 cells per well. Blank wells received no cells. […] Relative numbers of viable cells was determined by XTT assay. […] Then, the contents of each plate were mixed and optical densities were determined at a wavelength of 450 nm (OD450). Net OD450 was determined after subtracting OD450 of blank wells. […]
For another series, the target named is T1, Bcl-xL (Homo sapiens, UniProt Q07817).
T1 construct: made in house
Put plainly: Fluorescence polarization-based competitive binding assay (FPA) with fluorescein-labeled Bad peptide.

For series [3] the following is noted: previous cell-based assays; cited from earlier work.
Series [4] can be described thus: Combination of Apogossypol with fludarabine (FIG. 6, 7). It is filed as cell-based.
A further series relates to HeLa cells. Put plainly: HeLa cells viability assay. Type of series: cell-based. Particulars: Homo sapiens, read-out: IC50 (μM) HeLa.
[5] abbreviates: Table 1, green tea extracts, target Bcl-xL inferred from text and figure legends, read-out: IC50.
The mark [6] stands for this setting: Table 4, Purpurogallin derivatives, read-out: IC50 (μM) (Bcl-xL).
Where [7] appears, read: Table 2, black tea extracts, target Bcl-xL inferred from text and figure legends, read-out: IC50.

T1 sequence (Q07817 whole entry): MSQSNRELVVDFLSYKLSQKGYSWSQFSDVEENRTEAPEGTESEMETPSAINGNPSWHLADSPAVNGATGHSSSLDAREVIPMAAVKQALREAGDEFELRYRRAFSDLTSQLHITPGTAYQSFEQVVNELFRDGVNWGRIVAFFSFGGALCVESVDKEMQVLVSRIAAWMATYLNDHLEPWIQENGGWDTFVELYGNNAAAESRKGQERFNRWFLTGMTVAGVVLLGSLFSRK
Description for HeLa cells: as §1, §2

`Cc1cc2c(C(C)C)c(O)c(O)c(C=O)c2c(O)c1-c1c(C)cc2c(C(C)C)c(O)c(O)c(C=O)c2c1O` (racemic) [Gossypol]: the IC50 – broadly, the point on the concentration scale where inhibition reaches its midpoint – in series [1] came to 8.4 µM; in series [2] (read-out: IC50, cell viability, three days), 13.2 µM.

`Oc1cc(O)c2c(c1)O[C@@H](c1ccc(O)c(O)c1)[C@@H](O)C2` [(+) Epicatechin (EC), (+) Epicatechin]: the IC50 on Bcl-xL (setting [5]) is above 100 µM.

As to `Oc1cc(O)c2c(c1)O[C@@H](c1ccc(O)c(O)c1)[C@H](O)C2` [(−) Catechin (C), (−) Catechin], the IC50 on Bcl-xL (setting [5]) is above 100 µM.

As to `O=C(O[C@@H]1Cc2c(O)cc(O)cc2O[C@H]1c1ccc(O)c(O)c1)c1cc(O)c(O)c(O)c1` [(−) Catechin-3-gallate (CG), (−) Catechin-3-gallate], the IC50 on Bcl-xL (setting [5]) turned out to be 0.29 µM.

With `O=C(O[C@@H]1Cc2c(O)cc(O)cc2O[C@@H]1c1ccc(O)c(O)c1)c1cc(O)c(O)c(O)c1` [(−) Epicatechin-3-gallate (ECG), (−) Epicatechin-3-gallate], on Bcl-xL (setting [5]), the half-maximal inhibitory concentration (IC50) stood at 0.24 µM.

Regarding `Oc1cc(O)c2c(c1)O[C@H](c1cc(O)c(O)c(O)c1)[C@H](O)C2` [(−) Epigallocatechin (EGC), (−) Epigallocatechin], the IC50 on Bcl-xL (setting [5]) is above 100 µM.

In the case of `O=C(O[C@@H]1Cc2c(O)cc(O)cc2O[C@@H]1c1cc(O)c(O)c(O)c1)c1cc(O)c(O)c(O)c1` [(−) Epigallocatechin-3-gallate (EGCG), (−) Epigallocatechin-3-gallate], on Bcl-xL (setting [5]), the IC50 is 0.98 µM.

`Oc1cc(O)c2c(c1)O[C@@H](c1cc(O)c(O)c(O)c1)[C@H](O)C2` [(−) Gallocatechin (GC), (−) Gallocatechin]: the IC50 on Bcl-xL (setting [5]) is above 100 µM.

Regarding `O=C(O[C@@H]1Cc2c(O)cc(O)cc2O[C@H]1c1cc(O)c(O)c(O)c1)c1cc(O)c(O)c(O)c1` [(−) Gallocatechin-3-gallate (GCG), (−) Gallocatechin-3-gallate], on Bcl-xL (setting [5]), the half-inhibitory concentration (IC50) came out at 0.63 µM.

In the case of `Cc1cc2c(C(C)C)c(O)c(O)c(C=O)c2c(O)c1-c1c(C)cc2c(C(C)C)c(O)c(O)c(C=O)c2c1O` [(−) Gossypol], the “effectiveness as a cytotoxic agent relative to (+) Gossypol” value in series [3] is given as “ten times more effective than (+) Gossypol”.

For `Cc1cc2c(C(C)C)c(O)c(O)cc2c(O)c1-c1c(C)cc2c(C(C)C)c(O)c(O)cc2c1O` [Apogossypol (6C1), Apogossypol], the “effect in combination with fludarabine (F-ara-A)” value in series [4] (FIG. 6) is listed as “additive effect”. In addition, in series [4] (FIG. 7), the “effect in combination with F-ara-A” value is reported as “synergistic Effect”.

For the compound `CCOC(=O)c1cc(O)c(=O)c2cc(O)c(O)cc2c1` [Compound 5D1], the half-maximal inhibitory concentration (IC50) on Bcl-xL (setting [6]) is 73 µM; with HeLa cells (Table 4, HeLa cells viability), 51.5 µM; in series [1], around 50 µM.

Regarding `COc1cc2cccc(OC)c(=O)c2c(OC)c1OC` [Compound 6A1], the half-maximal inhibitory concentration (IC50) was above 100 µM on Bcl-xL (setting [6]) and above 100 µM in the series on HeLa cells (Table 4, HeLa cells viability).

With `COc1c(O)cc2cccc(OC)c(=O)c2c1OC` [Compound 6A7], the 50% inhibitory concentration (IC50) at Bcl-xL and in the series with HeLa cells (HeLa) was above 100 µM throughout.

`O=C(O)c1cc(O)c(=O)c2cc(O)c(O)cc2c1` [Compound 1142]: the IC50 at Bcl-xL (setting [6]) was found to be 7.4 µM; in the series on HeLa cells (Table 4, HeLa cells viability), 22.9 µM.

On to `COC(=O)c1cc(O)c(=O)c2cc(O)c(O)cc2c1` [Compound 1163], for which the IC50 at Bcl-xL (setting [6]) was 2.6 µM.

Regarding `O=c1c(O)cccc2cc(O)c(O)c(O)c12` [Purpurogallin], the “competition for the BH3-binding pocket” value on Bcl-xL (FIG. 1 legend) is “compete for the BH3-binding pocket of Bcl-xL”. The concentration for half-maximal inhibition (IC50) in the series with HeLa cells (Table 4, HeLa cells viability) was determined as 6.5 µM. For the same compound, the cytotoxic activity result in series [1] and in series [2] was “did not show appreciable activity” each time.

On to `O=c1c(O)cccc2c([C@H]3Oc4cc(O)cc(O)c4C[C@H]3O)cc(O)c(O)c12` [Theaflavanin], for which the IC50 at Bcl-xL (setting [7]) stood at 0.55 µM.

For `O=C(O[C@H]1Cc2c(O)cc(O)cc2OC1c1cc(O)c(=O)c2c(O)c(O)cc([C@H]3Oc4cc(O)cc(O)c4C[C@H]3O)c2c1)c1cc(O)c(O)c(O)c1` (stereo partly drawn) [Theaflavin-3′-gallate], the IC50 on Bcl-xL (setting [7]) came to 0.6 µM.

For the compound `O=c1c(O)cc([C@H]2Oc3cc(O)cc(O)c3C[C@H]2O)cc2c([C@H]3Oc4cc(O)cc(O)c4C[C@H]3O)cc(O)c(O)c12` [Theaflavin], at Bcl-xL (setting [7]), the concentration for half-maximal inhibition (IC50) was 1.05 µM.
